Measurements reported in patent US11447525B2 (NIIGATA UNIVERSITY, priority 2018, dated 2022).
Non-standard residues stand in square brackets, D forms with d. Residues, ends and D or L forms follow the SMILES beside them. *: point of attachment. 5FAM = O=C1OC2(c3ccc(O)cc3Oc3cc(O)ccc32)c2ccc(C(=O)*)cc21

Key:
[1] = tested on: pancreatic cancer cells (BxPC3, PK-8, MIA-Paca2, AsPC1, PL45, Panc-1); experiment: Accumulation of various peptides in pancreatic cancer cells (Test Example 5); type: cell-based, human; conditions: 2 μM, 37° C., 2 hours
Description: Test were conducted to confirm the accumulation of various peptides in each of the cells shown below in Table 11. Further, the peptides shown below in Table 12 were used.
Each peptide was added to each of the cells shown in Table 11 in an amount sufficient to achieve a final concentration in the medium of 2 μM, and following cultivation of the cells at 37° C. for 2 hours, the sample was washed 3 times with a medium containing no peptide to remove any peptide within the medium. Subsequently, the incorporation of each of the peptides into each of the cells was evaluated visually using an inverted fluorescence microscope. Prior to the microscopic examination, the culture supernatant to which the peptide had been added was removed, and following washing three times with 1×PBS (−), a trypsin treatment was conducted to remove the adherent cells, and the resultant was immediately transferred into a new 96-well plate and once again suspended in fresh culture solution before the microscopic examination was performed. In FIG. 17, “L” indicates the cells to which FAM-PCPP11 was added, “d” indicates the cells to which FAM-d was added, “LL” indicates the cells to which FAM-LL was added, “LL2” indicates the cells to which FAM-LL2 was added, and “dd” indicates the cells to which FAM-dd was added.

[2] = tested on: pancreatic cancer cells (BxPC3, PK-8, MIA-Paca2); experiment: Accumulation of FAM-labeled peptides in cells, inverted fluorescence microscope (Test Example 2); type: cell-based, human; conditions: 2 μM, 37° C., 2 hours
Description: (§1) Tests were conducted to confirm the accumulation of each peptide in each of the cells shown below in Table 8. Further, among the peptides shown below in Table 9, the FAM-PCPP11 used in Test Example 1, the LL peptide in which the N-terminus had been FAM-labeled (FAM-LL), and the Ld peptide in which the N-terminus had been FAM-labeled (FAM-Ld) were used.
(§2) Each of FAM-PCPP11, FAM-LL and FAM-Ld was added to each of the cells shown in Table 8 in an amount sufficient to achieve a final concentration in the medium of 2 μM, and following cultivation of the cells at 37° C. for 2 hours, the sample was washed 3 times with a medium containing no peptide to remove any peptide within the medium. Subsequently, the incorporation of each of the peptides into each of the cells was evaluated visually using an inverted fluorescence microscope. Prior to the microscopic examination, the culture supernatant to which the peptide had been added was removed, and following washing three times with 1×PBS (−), a trypsin treatment was conducted to remove the adherent cells, and the resultant was immediately transferred into a new 96-well plate and once again suspended in fresh culture solution before the microscopic examination was performed. In FIG. 8A, “L” indicates the cells to which FAM-PCPP11 was added, “LL” indicates the cells to which FAM-LL was added, and “Ld” indicates the cells to which FAM-Ld was added. Further, the fluorescent images in the BxPC3 cells indicate a representative example of pancreatic cancer cells.
(§3) Furthermore, FIG. 8B is a graph quantifying the fluorescence detected in each of the above cells in FIG. 8A, with the fluorescence intensity detected in each cell shown relative to a value of 1.0 for the fluorescence detected in the H2110 cells, which is a cell line derived from an adenocarcinoma in a human non-small-cell lung cancer system, to which each of the FAM-PCPP11 and FAM-LL peptides had been added.
Further, each of FAM-PCPP11, FAM-LL and FAM-NmLL was added to each of the cells shown in Table 8 in an amount sufficient to achieve a final concentration in the medium of 2 μM, and following cultivation of the cells at 37° C. for 2 hours, the sample was washed 3 times with a medium containing no peptide to remove any peptide within the medium. Subsequently, the incorporation of each of the peptides into each of the cells was evaluated visually using an inverted fluorescence microscope. […]

[3] = tested on: human pancreatic cancer growth and progression mouse model (subcutaneous and intraperitoneal human pancreatic cancer cell-transplanted); experiment: Selective absorption into tissues of human pancreatic cancer growth and progression mouse model, fluorescence signal (Test Examples 3, 4, Reference Example 2); type: in vivo, Balb/c nu/nu mouse; conditions: 200 μg intravenously, 30 minutes after injection; for nonspecific absorption compared with conventional PCPP11: FIG. 10A to 10D; for absorption into pancreatic malignant tumors compared with the conventional PCPP11: FIG. 11
Description: Subsequently, 200 μg of each of the fluorescent labeled peptides prepared above in “1.” was injected intravenously into a human pancreatic cancer growth and progression mouse model (Balb/c nu/nu mouse, subcutaneous and intraperitoneal human pancreatic cancer cell-transplanted model). The pharmacokinetics of the peptide 30 minutes after the intravenous injection were then analyzed by tissue analysis of the freshly dissected specimen of the administered mouse, with the absorption quantified by detection of the fluorescence signal. […] In FIG. 9A, “sc tumor” is an abbreviation for “subcutaneous tumor”. In FIG. 9B, “abd tumor” is an abbreviation for “abdominal tumor”, indicating a tumor formed intraperitoneally. Further, “br” indicates the brain, “hr” indicates the heart, “kd” indicates the kidney, and “liv” indicates the liver. Furthermore, “liv. meta” is an abbreviation for “liver metastatic tumor”, and describes a tumor that has metastasized to the liver. Moreover, “panc” indicates the pancreas, and “sp” indicates the spleen. These same abbreviations are also used in subsequent figures. Furthermore, the term “untreated” in FIG. 9A indicates tissues resected from a mouse that was not administered with any fluorescent labeled peptide.
Specifically, first, either 27 μg or 200 μg of fluorescein was injected intravenously into a human pancreatic cancer growth and progression mouse model (Balb/c nu/nu mouse, subcutaneous and intraperitoneal human pancreatic cancer cell-transplanted model). The pharmacokinetics of the FLC 30 minutes after the intravenous injection were then analyzed by tissue analysis of the freshly dissected specimen of the administered mouse, with the absorption quantified by detection of the fluorescence signal.

[4] = tested on: scirrhous pancreatic cancer model mouse (BxPC3 cells; BxPC3 cells and hMSC); experiment: Selective absorption of FAM-LL in tissues of scirrhous pancreatic cancer model mouse (Test Example 6); type: in vivo, NOD/SCID mouse; conditions: 200 μg into the caudal vein, 30 minutes after administration
Description: FAM-LL was administered to a pancreatic cancer model mouse having scirrhous carcinoma, and the selective absorption of the FAM-LL in various tissues of the mouse was confirmed. A scirrhous pancreatic cancer model mouse having scirrhous carcinoma that forms abundant tumor-stroma interactions was produced in accordance with the method disclosed in Reference Document 1 (Saito K et al., “Stromal mesenchymal stem cells facilitate pancreatic cancer progression by regulating specific secretory molecules through mutual cellular interaction.”, Journal of Cancer, Vol. 9, No. 16, pp. 2916-2929, 2018.). Specifically, a 6-week old NOD/SCID mouse (CLEA Japan Inc., Japan) was raised under pathogen-free conditions. BxPC3 cells (2×10^5 cells) and a cell mixture containing BxPC3 cells (1×10^5 cells) and human mesenchymal stem cells (hMSC) (1×10^5 cells) were each injected subcutaneously into the mouse.
FAM-LL (200 μg) was injected into the caudal vein of the obtained scirrhous pancreatic cancer model mouse. Subsequently, the pharmacokinetics of the peptide 30 minutes after administration were analyzed by tissue analysis of the freshly dissected specimen of the peptide-administered mouse. FIG. 18A is a series of bright-field images (left and center) and a fluorescent image (right) of the tumors in the scirrhous pancreatic cancer model mouse. […]

[5] = tested on: stomach cancer cells (SCH); experiment: Accumulation of FAM-labeled peptides in cells, inverted fluorescence microscope (Test Example 2); type: cell-based, human; conditions: 2 μM, 37° C., 2 hours
Description: as §1, §2, §3

[6] = FIG. 8B, relative to H2110 cells = 1.0

Structure (SMILES) | fluorescence compared with the other peptides [1] | fluorescence detected [1] | fluorescence compared with the sample containing FAM-PCPP11 [2] | increase of quantitative value for the fluorescence compared with FAM-PCPP11 [2, 6] | inhibitory performance on nonspecific absorption into untargeted normal organs [3] | nonspecific absorption compared with conventional PCPP11 [3] | absorption into pancreatic malignant tumors compared with the conventional PCPP11 [3] | absorption into the cancer cell nests inside the tumor tissue [4] | absorption into the tumor tissue [4] | fluorescence compared with the sample containing FAM-PCPP11 [5] | increase of quantitative value for the fluorescence compared with FAM-PCPP11 [5, 6]
C[C@@H](O)[C@H](NC(=O)[C@@H](NC(=O)[C@@H]1CCCN1C(=O)[C@H](CCCNC(=N)N)NC(=O)[C@H](CCCNC(=N)N)NC(=O)CNC(=O)[C@@H]1CCCN1C(=O)CNC(=O)[C@@H]1CCCN1C(=O)[C@H](CCCCN)NC(=O)[C@H](Cc1c[nH]cn1)NC(=O)[C@H](Cc1c[nH]c2ccccc12)NC(=O)[C@@H](NC(=O)[C@@H](NC(=O)[C@@H]1CCCN1C(=O)[C@H](CCCNC(=N)N)NC(=O)[C@H](CCCNC(=N)N)NC(=O)c1ccc2c(c1)C(=O)OC21c2ccc(O)cc2Oc2cc(O)ccc21)[C@@H](C)O)[C@@H](C)O)[C@@H](C)O)C(=O)N[C@@H](Cc1c[nH]c2ccccc12)C(=O)N[C@@H](Cc1c[nH]cn1)C(=O)N[C@@H](CCCCN)C(=O)N1CCC[C@H]1C(=O)O [FAM-LL2] (5FAM-RRPTTWHKPGPGRRPTTWHKP-OH; C-terminus assumed) | stronger fluorescence | – | – | – | – | – | – | – | – | – | –
C[C@@H](O)[C@H](NC(=O)[C@@H](NC(=O)[C@@H]1CCCN1C(=O)[C@H](CCCNC(=N)N)NC(=O)[C@H](CCCNC(=N)N)NC(=O)CNC(=O)[C@@H]1CCCN1C(=O)[C@H](CCCCN)NC(=O)[C@H](Cc1c[nH]cn1)NC(=O)[C@H](Cc1c[nH]c2ccccc12)NC(=O)[C@@H](NC(=O)[C@@H](NC(=O)[C@@H]1CCCN1C(=O)[C@H](CCCNC(=N)N)NC(=O)[C@H](CCCNC(=N)N)NC(=O)c1ccc2c(c1)C(=O)OC21c2ccc(O)cc2Oc2cc(O)ccc21)[C@@H](C)O)[C@@H](C)O)[C@@H](C)O)C(=O)N[C@@H](Cc1c[nH]c2ccccc12)C(=O)N[C@@H](Cc1c[nH]cn1)C(=O)N[C@@H](CCCCN)C(=O)N1CCC[C@H]1C(=O)O [FAM-LL] (5FAM-RRPTTWHKPGRRPTTWHKP-OH; C-terminus assumed) | stronger fluorescence | particularly strong fluorescence | stronger fluorescence | at least 2.9 fold | satisfactorily maintained | inhibited even more effectively | 3 fold | strong absorption | strong absorption | stronger fluorescence | at least 2.9 fold
C[C@H](O)[C@@H](NC(=O)[C@@H](Cc1c[nH]c2ccccc12)NC(=O)[C@@H](Cc1c[nH]cn1)NC(=O)[C@@H](CCCCN)NC(=O)[C@H]1CCCN1C(=O)CNC(=O)[C@@H]1CCCN1C(=O)[C@H](CCCCN)NC(=O)[C@H](Cc1c[nH]cn1)NC(=O)[C@H](Cc1c[nH]c2ccccc12)NC(=O)[C@@H](NC(=O)[C@@H](NC(=O)[C@@H]1CCCN1C(=O)[C@H](CCCNC(=N)N)NC(=O)[C@H](CCCNC(=N)N)NC(=O)c1ccc2c(c1)C(=O)OC21c2ccc(O)cc2Oc2cc(O)ccc21)[C@@H](C)O)[C@@H](C)O)C(=O)N[C@@H](C(=O)N1CCC[C@@H]1C(=O)N[C@H](CCCNC(=N)N)C(=O)N[C@H](CCCNC(=N)N)C(=O)O)[C@H](C)O [FAM-Ld] (5FAM-RRPTTWHKPG[dP][dK][dH][dW][dT][dT][dP][dR][dR]-OH; C-terminus assumed) | – | – | stronger fluorescence | – | satisfactorily maintained | inhibited even more effectively | approximately 4 fold | – | – | stronger fluorescence | –
